The compounds below were run against T1, IL-17A/A (Homo sapiens, UniProt Q16552) (assay: HEK-Blue IL-17A/A inhibition assay (SEAP reporter)). Conditions: HEK-Blue cells (HEK 293 expressing IL-17RA, IL-17RC, Act1); IL-17A/A stimulation; 20 hours; SEAP read at A630; 4-parameter fit.
T1 construct: purchased Genscript Z03228
T1 sequence (Q16552 24-155): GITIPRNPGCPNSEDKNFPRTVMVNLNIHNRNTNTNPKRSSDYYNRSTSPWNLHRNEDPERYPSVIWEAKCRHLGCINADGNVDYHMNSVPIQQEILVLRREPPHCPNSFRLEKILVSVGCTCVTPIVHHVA
Type: cell-based
Outline: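 HEK 293 cells engineered with IL-17RA, IL-17RC and Act1 (NFκB-driven SEAP) given titrated compound (top final 10, 1 or 0.3 uM; 0.1% DMSO) just before IL-17A/A, then incubated 20 h. SEAP in media developed with Quanti-Blue, read at A630; IC50 by 4-parameter nonlinear fit.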

Compound	IC50 [nM]
CCn1nccc1C(=O)N[C@H](C(=O)Nc1cc(OC(F)(F)F)c(C(C)C(=O)N(C)CC(F)(F)F)cc1F)C(C1CC1)C1CC1 (stereo partly drawn) [Compound 253]	< 100
CC(C(=O)NCC(F)(F)F)c1cc(F)c(NC(=O)[C@@H](NC(=O)c2ccnn2C(C)C)C(C2CC2)C2CC2)cc1Nc1ccccn1 (stereo partly drawn) [Compound 254]	> 1000
CCOC(=O)Nc1cc(NC(=O)[C@@H](NC(=O)c2ccnn2C(C)C)C(C2CC2)C2CC2)c(F)cc1C(C)C(=O)NCC(F)(F)F (stereo partly drawn) [Compound 255]	> 1000
CC(C(=O)NCC(F)(F)F)c1cc(F)c(NC(=O)[C@@H](NC(=O)c2ccnn2C(C)C)C(C2CC2)C2CC2)cc1NC(=O)OCCN (stereo partly drawn) [Compound 256]	100 to 1000
CC(C(=O)N(C)CC(F)(F)F)c1cc(F)c(NC(=O)[C@@H](NC(=O)c2ccnn2C(C)C)C(C2CC2)C2CC2)cc1OC(F)(F)F (stereo partly drawn) [Compound 257]	< 100
CC(C(=O)NCC(F)(F)F)c1cc(F)c(NC(=O)[C@@H](NC(=O)c2ccnn2C)C(C2CC2)C2CC2)cc1OC(F)(F)F (stereo partly drawn) [Compound 258]	< 100
CCn1nccc1C(=O)N[C@H](C(=O)Nc1cc(OC(F)(F)F)c(C(C)C(=O)NCC(F)(F)F)cc1F)C(C1CC1)C1CC1 (stereo partly drawn) [Compound 259]	< 100
CC(C(=O)NCC(F)(F)F)c1cc(F)c(NC(=O)[C@@H](NC(=O)c2ccnn2C(C)C)C(C2CC2)C2CC2)cc1CS(C)(=N)=O (stereo partly drawn) [Compound 260]	100 to 1000
N-((S)-1,1-dicyclopropyl-3-((2-fluoro-4-((S)-1-oxo-1-(3-(trifluoromethyl)azetidin-1-yl)propan-2-yl)phenyl)amino)-3-oxopropan-2-yl)-1-ethyl-1H-pyrazole-5-carboxamide [Compound 14]	100 to 1000

Reference: patent US20240376056A1, “PHENYL ACETAMIDE BASED IL-17A MODULATORS AND USES THEREOF” (DiCE Alpha, Inc., priority 2021, published 2024)
